What is called EC50 is the concentration that produces a half-maximal response.

EC50 data for six compounds are collected here from PubChem BioAssay AID743235 (The Scripps Research Institute Molecular Screening Center, 2013).

This assay deals with Counterscreen cells for TAAR1 agonist assay, fluorescence. As to the kind of experiment: agonism at human TAAR1, counter-screen – cell-based, fluorescence, counter-screen for TAAR1 antagonist project, late-stage follow-up (AID 743235). In general terms: A counterscreen serves to expose hits that act by an unwanted route or on another target.

Calls of active or inactive are those of the source. The rule behind the calls is not given here.

Consider `COc1cc(NC(=O)c2cc3ccccc3o2)c(OC)cc1Cl`, for which the EC50 is > 29.9 µM (inactive).
As to `CCOC(=O)C1CCCN(c2c(C(=O)c3ccccc3)cnc3ccc(OC)cc23)C1` (stereo unspecified), the EC50 is 20.1 µM (inactive).
In the case of `COc1cccc(-c2nn(-c3ccccc3)cc2C(=O)Nc2nccs2)c1`, the EC50 is > 29.9 µM (inactive).
Turning to `Cc1ccc(CSCC(=O)Nc2cc(S(=O)(=O)N3CCOCC3)ccc2OCC(F)(F)F)cc1`, the EC50 was > 29.9 µM (inactive).
As to `O=C(NCCn1cc(SCc2ccccc2F)c2ccccc21)c1c(F)cccc1F`, the EC50 was > 29.9 µM (inactive).
As for `Cc1cccc(C(C#N)c2nc3ccccc3nc2C(F)(F)F)c1` (stereo unspecified), the EC50 is > 29.9 µM (inactive).
